Experimental data as given in patent US20240158446A1, “CYCLIC COMPOUND HAVING SELECTIVE INHIBITORY ACTION ON KRAS OVER HRAS AND NRAS” (CHUGAI SEIYAKU KABUSHIKI KAISHA, priority 2021, published 2024).
Where two headings read alike, the source gives them in different places. Where a SMILES comes first, the peptide text is derived from it. Bridges are numbered along the chain shown (N, C = ends). [ ]: non-standard residue; d: D form. The star is where a group is joined. hPhe(3,5-F2-4-CF3) = N[C@@H](CCc1cc(F)c(C(F)(F)F)c(F)c1)C(=O)O; hPhe(3-Cl-4-CF3) = N[C@@H](CCc1ccc(C(F)(F)F)c(Cl)c1)C(=O)O; NPrPhe(4-CF3) = CCCN[C@@H](Cc1ccc(C(F)(F)F)cc1)C(=O)O; NMePhe(4-Me) = CN[C@@H](Cc1ccc(C)cc1)C(=O)O; NMeGly(cPent) = CN[C@H](C(=O)O)C1CCCC1; Ac4c(3,3-F2) = NC1(C(=O)O)CC(F)(F)C1; Hyp = O=C(O)[C@@H]1C[C@@H](O)CN1; NMeD = CN[C@@H](CC(=O)O)C(=O)O; NMeL = CN[C@@H](CC(C)C)C(=O)O; Morpholide = C1CN(*)CCO1; NMeAib = CNC(C)(C)C(=O)O; Nle = CCCC[C@H](N)C(=O)O; Piperidide = C1CCN(*)CC1; Ac4c = NC1(C(=O)O)CCC1; Sar = CNCC(=O)O

How the values were obtained:
[1] = molecular target: GDP-bound NRAS wild-type protein (Homo sapiens, UniProt P01111); test: Binding to NRAS by surface plasmon resonance (SPR), Single Cycle Kinetics; details: for NRAS/KRAS (ratio of KD value for NRAS to KD value for KRAS) / NRAS/KRAS (ratio of KD value with respect to NRAS to KD value with respect to KRAS): SPR, GDP-bound NRAS wild-type protein vs GDP-bound KRAS wild-type protein; for NRAS/KRAS (ratio of KD value with respect to GDP-bound NRAS wild-type protein to KD value with respect to KRAS): SPR KD ratio NRAS/KRAS, class symbols
GDP-bound NRAS wild-type protein, sequence (P01111 whole entry): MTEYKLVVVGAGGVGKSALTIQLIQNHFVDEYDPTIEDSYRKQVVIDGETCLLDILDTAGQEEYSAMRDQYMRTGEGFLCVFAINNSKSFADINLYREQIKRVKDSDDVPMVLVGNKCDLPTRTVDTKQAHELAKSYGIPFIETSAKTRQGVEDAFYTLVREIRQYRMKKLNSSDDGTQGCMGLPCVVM

[2] = molecular target: GDP-bound HRAS wild-type protein (Homo sapiens, UniProt P01112); test: Binding to HRAS by surface plasmon resonance (SPR), Single Cycle Kinetics; details: for HRAS/KRAS (ratio of KD value for HRAS to KD value for KRAS) / HRAS/KRAS (ratio of KD value with respect to HRAS to KD value with respect to KRAS): SPR, GDP-bound HRAS wild-type protein vs GDP-bound KRAS wild-type protein; for HRAS/KRAS (ratio of KD value with respect to GDP-bound HRAS wild-type protein to KD value with respect to KRAS): SPR KD ratio HRAS/KRAS, class symbols
GDP-bound HRAS wild-type protein, sequence (P01112 whole entry): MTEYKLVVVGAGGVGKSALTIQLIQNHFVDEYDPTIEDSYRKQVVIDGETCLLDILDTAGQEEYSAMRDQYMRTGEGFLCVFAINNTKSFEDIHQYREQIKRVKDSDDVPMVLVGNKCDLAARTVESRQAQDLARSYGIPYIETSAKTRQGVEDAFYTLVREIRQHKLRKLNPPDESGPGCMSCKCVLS

[3] = molecular target: GDP-bound KRAS wild-type protein (Homo sapiens, UniProt P01116); test: Binding to KRAS by surface plasmon resonance (SPR), Single Cycle Kinetics; details: GDP-bound KRAS wild-type protein, read-out: KRAS KD
GDP-bound KRAS wild-type protein, sequence (P01116 whole entry): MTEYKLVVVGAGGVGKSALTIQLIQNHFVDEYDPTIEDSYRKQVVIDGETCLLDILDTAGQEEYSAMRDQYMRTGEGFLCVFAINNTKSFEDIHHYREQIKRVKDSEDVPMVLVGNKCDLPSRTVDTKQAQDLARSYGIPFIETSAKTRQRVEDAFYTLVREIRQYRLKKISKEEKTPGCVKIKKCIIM

[4] = SPR Single Cycle Kinetics, 1:1 binding model

Row | Structure (SMILES) | NRAS/KRAS (ratio of KD value for NRAS to KD value for KRAS) [1] | HRAS/KRAS (ratio of KD value for HRAS to KD value for KRAS) [2] | Kd ([3]; SPR, Single Cycle Kinetics) [pM] | Kd [3, 4] [pM] | also measured
1 | CCC[C@H]1C(=O)N[C@@H](C2CCCC2)C(=O)N(C)CC(=O)N(C)[C@H]2C/C=C\CCN(C2=O)[C@@H](Cc2ccc(C(F)(F)F)cc2)C(=O)N(C)CC(=O)N[C@@H](CCc2ccc(C(F)(F)F)c(Cl)c2)C(=O)N2C[C@H](OCC)C[C@H]2C(=O)NC2(CC(C)(C)C2)C(=O)N(C)[C@@H](CC(C)(C)C)C(=O)N(C)[C@H](C(=O)N(C)C)CC(=O)N1C [PP2971] | A (a compound having 10 or more and less than 20 is denoted as A) | A (a compound having 10 or more and less than 20 is denoted as A) | 190 | – | –
2 | CC[C@H](C)[C@@H]1NC(=O)[C@H](CC(C)C)N(C)C(=O)C[C@@H](C(=O)N2CCOCC2)N(C)C(=O)[C@H](C2CCCC2)N(C)C(=O)C2(CCCC2)NC(=O)[C@@H]2C[C@H](OC)CN2C(=O)[C@H](CCc2cc(F)c(C(F)(F)F)c(F)c2)NC(=O)CN(C)C(=O)[C@H](Cc2ccc(C(F)(F)F)cc2)N2CCCC[C@@H](C2=O)N(C)C(=O)CN(C)C1=O [PP0557] | – | – | – | 110 | NRAS/KRAS (ratio of KD value with respect to NRAS to KD value with respect to KRAS) [1]: B (a compound having 3 or more and less than 10 is denoted as B); HRAS/KRAS (ratio of KD value with respect to HRAS to KD value with respect to KRAS) [2]: B (a compound having 3 or more and less than 10 is denoted as B)
3 | CCC[C@H]1C(=O)N[C@@H]([C@@H](C)CC)C(=O)N(C)CC(=O)N(C)[C@H]2C/C=C\CCN(C2=O)[C@@H](Cc2ccc(C(F)(F)F)cc2)C(=O)N(C)CC(=O)N[C@@H](CCc2ccc(Cl)c(OC)c2)C(=O)N2C[C@H](OCC)C[C@H]2C(=O)NC2(CC(C)(C)C2)C(=O)N(C)[C@@H](C2CCCC2)C(=O)N(C)[C@H](C(=O)N(C)C)CC(=O)N1C [PP2788] | – | – | – | 450 | NRAS/KRAS (ratio of KD value with respect to GDP-bound NRAS wild-type protein to KD value with respect to KRAS) [1]: A (a compound having 10 or more and less than 20 is denoted as A); HRAS/KRAS (ratio of KD value with respect to GDP-bound HRAS wild-type protein to KD value with respect to KRAS) [2]: A (a compound having 10 or more and less than 20 is denoted as A)
4 | CCCC[C@@H]1NC(=O)[C@H](CCc2ccc(C(F)(F)F)c(Cl)c2)NC(=O)CN(C)C(=O)[C@H](Cc2ccc(C)cc2)N(C)C(=O)CN(C)C(=O)CN(C)C(=O)[C@H]([C@@H](C)CC)NC(=O)[C@H](CC(C)C)N(C)C(=O)C[C@@H](C(=O)N2CCCCC2)N(C)C(=O)[C@H](CC(C)C)NC(=O)C(C)(C)N(C)C1=O [PP0049] ([NMeL]I[Sar][Sar][NMePhe(4-Me)][Sar][hPhe(3-Cl-4-CF3)][Nle][NMeAib]L[NMeD]-Piperidide; lactam N-11) | C (A compound having a KD ratio of 0.1 or more and less than 3 is denoted as C) | C (A compound having a KD ratio of 0.1 or more and less than 3 is denoted as C) | – | 6300 | –
5 | CCCO[C@@H]1C[C@H]2C(=O)NC3(CCC3)C(=O)N(C)[C@@H](C3CCCC3)C(=O)N(C)[C@H](C(=O)N3CCOCC3)CC(=O)N(C)[C@@H](COC)C(=O)N[C@@H]([C@@H](C)CC)C(=O)N(C)CC(=O)N(C)[C@H]3CCCCCN(C3=O)[C@@H](Cc3ccc(C(F)(F)F)cc3)C(=O)N(C)CC(=O)N[C@@H](CCc3cc(F)c(C(F)(F)F)c(F)c3)C(=O)N2C1 [PP0838] | B (a compound having 3 or more and less than 10 is denoted as B) | B (a compound having 3 or more and less than 10 is denoted as B) | 530 | – | –
6 | CCC[C@H]1C(=O)N[C@@H]([C@@H](C)CC)C(=O)N(C)CC(=O)N(C)[C@H]2C/C=C\CCN(C2=O)[C@@H](Cc2ccc(C(F)(F)F)cc2)C(=O)N(C)CC(=O)N[C@@H](CCc2cc(F)c(C(F)F)c(F)c2)C(=O)N2C[C@H](OCC)C[C@H]2C(=O)NC2(CC(C)(C)C2)C(=O)N(C)[C@@H](C2CCCC2)C(=O)N(C)[C@H](C(=O)N(C)C)CC(=O)N1C [PP2780] | – | – | – | 300 | NRAS/KRAS (ratio of KD value with respect to GDP-bound NRAS wild-type protein to KD value with respect to KRAS) [1]: A (a compound having 10 or more and less than 20 is denoted as A); HRAS/KRAS (ratio of KD value with respect to GDP-bound HRAS wild-type protein to KD value with respect to KRAS) [2]: A (a compound having 10 or more and less than 20 is denoted as A)
7 | CC[C@H](C)[C@@H]1NC(=O)[C@H](CC2CC2)N(C)C(=O)C[C@@H](C(=O)N(C)C)N(C)C(=O)[C@H](C2CCCC2)N(C)C(=O)C2(CCC2)NC(=O)[C@@H]2C[C@@H](C(F)(F)F)CN2C(=O)[C@H](CCc2cc(F)c(C(F)(F)F)c(F)c2)NC(=O)CN(C)C(=O)[C@H](Cc2ccc(C(F)(F)F)cc2)N2CC/C=C\C[C@@H](C2=O)N(C)C(=O)CN(C)C1=O [PP1498] | – | – | – | – | NRAS/KRAS (ratio of KD value for NRAS to KD value for KRAS) ([1]; KD ratio class): A (a compound having 10 or more and less than 20 is denoted as A); HRAS/KRAS (ratio of KD value for HRAS to KD value for KRAS) ([2]; KD ratio class): A (a compound having 10 or more and less than 20 is denoted as A); Kd ([3]; SPR, Single Cycle Kinetics, 1:1 binding model): 69 pM
8 | CCCN1C(=O)CN(C)C(=O)CNC(=O)[C@H]([C@@H](C)CC)NC(=O)[C@H](CC(C)C)N(C)C(=O)C[C@@H](C(=O)N2CCOCC2)N(C)C(=O)[C@H](C2CCCC2)N(C)C(=O)C2(CCC2)NC(=O)[C@@H]2C[C@@H](OCC)CN2C(=O)[C@H](CCc2ccc(C(F)(F)F)c(Cl)c2)NC(=O)CN(C)C(=O)[C@@H]1Cc1ccc(C(F)(F)F)cc1 [PP0397] ([NMeL]IG[Sar][NPrPhe(4-CF3)][Sar][hPhe(3-Cl-4-CF3)][Hyp](Et)[Ac4c][NMeGly(cPent)][NMeD]-Morpholide; lactam N-11) | C (A compound having a KD ratio of 0.1 or more and less than 3 is denoted as C) | C (A compound having a KD ratio of 0.1 or more and less than 3 is denoted as C) | – | 120 | –
9 | CCCN1C(=O)CN(C)C(=O)CN(C)C(=O)[C@H]([C@@H](C)CC)NC(=O)[C@H](CC(C)C)N(C)C(=O)C[C@@H](C(=O)N2CCOCC2)N(C)C(=O)[C@H](C2CCCC2)N(C)C(=O)C2(CC(F)(F)C2)NC(=O)[C@@H]2CCCN2C(=O)[C@H](CCc2cc(F)c(C(F)(F)F)c(F)c2)NC(=O)CN(C)C(=O)[C@@H]1Cc1ccc(C(F)(F)F)cc1 [PP0766] ([NMeL]I[Sar][Sar][NPrPhe(4-CF3)][Sar][hPhe(3,5-F2-4-CF3)]P[Ac4c(3,3-F2)][NMeGly(cPent)][NMeD]-Morpholide; lactam N-11) | – | – | – | 96 | NRAS/KRAS (ratio of KD value with respect to NRAS to KD value with respect to KRAS) [1]: B (a compound having 3 or more and less than 10 is denoted as B); HRAS/KRAS (ratio of KD value with respect to HRAS to KD value with respect to KRAS) [2]: B (a compound having 3 or more and less than 10 is denoted as B)
10 | CCO[C@@H]1C[C@H]2C(=O)NC3(CCC3)C(=O)N(C)[C@@H](C3CCCC3)C(=O)N(C)[C@H](C(=O)N3CCOCC3)CC(=O)N(CC)[C@@H](CC(C)C)C(=O)N[C@@H]([C@@H](C)CC)C(=O)N(C)CC(=O)N(C)[C@H]3CC(C)=CCN(C3=O)[C@@H](Cc3ccc(C(F)(F)F)cc3)C(=O)N(C)CC(=O)N[C@@H](CCc3cc(F)c(C(F)(F)F)c(F)c3)C(=O)N2C1 [PP1044] | C (A compound having a KD ratio of 0.1 or more and less than 3 is denoted as C) | C (A compound having a KD ratio of 0.1 or more and less than 3 is denoted as C) | 1800 | – | –
